In paper PMC4741387 (Biochemistry, 2015):
Where a chain is given by its changes, count along the chain named.

What was measured:
Experiment in all cases: fluorescence titration of rhodamine-labelled protein
[1] = molecular target: T1, (K229C,E302C)PBP labeled with 6-IATR (PstS phosphate binding protein) (Escherichia coli, UniProt P0AG82, E327C/G165A/K254C)
T1 sequence (P0AG82 26-346 G165A/K254C/E327C): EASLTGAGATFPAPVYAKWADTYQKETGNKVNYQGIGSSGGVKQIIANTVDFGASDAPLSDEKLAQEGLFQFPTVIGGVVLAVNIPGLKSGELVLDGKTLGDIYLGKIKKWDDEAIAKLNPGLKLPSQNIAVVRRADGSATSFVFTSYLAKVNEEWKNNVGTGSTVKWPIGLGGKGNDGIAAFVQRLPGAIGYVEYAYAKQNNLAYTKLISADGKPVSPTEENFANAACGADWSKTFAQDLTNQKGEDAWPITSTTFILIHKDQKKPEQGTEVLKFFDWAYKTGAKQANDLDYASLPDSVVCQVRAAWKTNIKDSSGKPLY

[2] = molecular target: T2, rho-PBP: (A17C,A197C)PBP labeled with 6-IATR (PstS phosphate binding protein) (Escherichia coli, UniProt P0AG82, A222C/A42C/R160A)
T2 sequence (P0AG82 26-346 A42C/R160A/A222C): T1 sequence (P0AG82 26-346 G165A/K254C/E327C) with A17C, R135A, A140G, A197C, C229K, C302E

[3] = molecular target: T3, rho-PBP: (A17C,A197C)PBP labeled with 6-IATR (PstS phosphate binding protein) (Escherichia coli, UniProt P0AG82, A222C/A42C/G165A)
T3 sequence (P0AG82 26-346 A42C/G165A/A222C): T1 sequence (P0AG82 26-346 G165A/K254C/E327C) with A17C, A197C, C229K, C302E

[4] = molecular target: T4, rho-PBP: (A17C,A197C)PBP labeled with 6-IATR (PstS phosphate binding protein) (Escherichia coli, UniProt P0AG82, A222C/A42C/G165A/S189K/S64D)
T4 sequence (P0AG82 26-346 A42C/S64D/G165A/S189K/A222C): T1 sequence (P0AG82 26-346 G165A/K254C/E327C) with A17C, S39D, S164K, A197C, C229K, C302E

[5] = molecular target: T5, rho-PBP: (A17C,A197C)PBP labeled with 6-IATR (PstS phosphate binding protein) (Escherichia coli, UniProt P0AG82, A222C/A42C/T35A)
T5 sequence (P0AG82 26-346 T35A/A42C/A222C): T1 sequence (P0AG82 26-346 G165A/K254C/E327C) with T10A, A17C, A140G, A197C, C229K, C302E

[6] = molecular target: T6, rho-PBP: (A17C,A197C)PBP labeled with 6-IATR (PstS phosphate binding protein) (Escherichia coli, UniProt P0AG82, A222C/A42C/S63A)
T6 sequence (P0AG82 26-346 A42C/S63A/A222C): T1 sequence (P0AG82 26-346 G165A/K254C/E327C) with A17C, S38A, A140G, A197C, C229K, C302E

O=P(O)(O)O [inorganic phosphate]
Kd [1]: 220 ± 11 µM
Kd [2]: < 1 µM
Kd [3]: 70 ± 17 µM
Kd [4]: 40 ± 4 µM
Kd [5]: 32 ± 2 µM
Kd [6]: 68 ± 9 µM
